≈ marks a conversion by molar mass, not a printed value.

Assay [1] concerns survivin protein. The assay can be described thus: Western blot analysis of survivin. It counts as cell-based. (In general: In western blotting, separated proteins are transferred to a membrane and probed.)
The subject of assay [2] is RPM17951. Briefly: Sulforhodamine B (SRB) assay. The assay is classed as cell-based. The note with it: RPM17951, Melanoma; 48 hours; read-out: GI50 (SRB in vitro cytotoxicity). As for the experimental part: (§1) Growth inhibitory effect of Compound A on the cells listed below was measured by the sulforhodamine B assay. SW480 cells in 100 μl media were plated in each well of 96-well plate and allowed to attach for 24 hours. Compound A was added to the wells to produce the desired final concentrations, and the plates were incubated at 37° C. for 48 hours. The cells were then fixed by gentle addition of 100 μl of cold (4° C.) 10% trichloroacetic acid to each well, followed by incubation at 4° C. for 1 hour. Plates were washed with deionized water five times and allowed to air dry. The cells were then stained by addition of 100 μl SRB solution (0.4% SRB(w/v) in 1% acetic acid (v/v)) to wells for 15 min. After staining, the plates were quickly washed five times with 1% acetic acid to remove any unbound dye, and allowed to air dry. Bound dye was solubilized with 10 mmol/L Tris base (pH 10.5) prior to reading the plates. The optical density (OD) was read on a plate reader at a wavelength of 515 nm with Molecular Device. Inhibition of growth was expressed as relative viability (% of control) and GI50 was calculated from concentration-response curves after log/probit transformation.
For orientation: Sulforhodamine B stains cellular protein and so reports cell mass.

The subject of assay [3] is HMV-II. The assay can be described thus: Sulforhodamine B (SRB) assay. The assay is classed as cell-based. The note with it: Melanoma, 48 hours, read-out: GI50 (SRB in vitro cytotoxicity). As for the experimental part:
as §1

The test system of assay [4] is SW620. The assay can be described thus: Sulforhodamine B (SRB) assay. It counts as cell-based. To be noted: Homo sapiens, SW-620; SW620, Colon; 48 hours; read-out: GI50 (SRB in vitro cytotoxicity). As for the experimental part: as §1
Assay [5] has as its system MCF7/ADR. Briefly: Sulforhodamine B (SRB) assay. It counts as cell-based. To be noted: Homo sapiens, NCI/ADR-RES, Breast, 48 hours, read-out: GI50 (SRB in vitro cytotoxicity). The method, then:
as §1

Assay [6] deals with CRL1579. Briefly: Sulforhodamine B (SRB) assay. It counts as cell-based. The note with it: CRL1579, Melanoma; 48 hours; read-out: GI50 (SRB in vitro cytotoxicity). As for the experimental part: as §1
In assay [7] the test system is MCF7. The assay can be described thus: Sulforhodamine B (SRB) assay. The note with it: Homo sapiens; MCF7, Breast; 48 hours; read-out: GI50 (SRB in vitro cytotoxicity). It counts as cell-based. The method, then: as §1
The test system of assay [8] is HCC2998. Briefly: Sulforhodamine B (SRB) assay. The assay is classed as cell-based. The note with it: Homo sapiens, HCC 2998; HCC2998, Colon; 48 hours; read-out: GI50 (SRB in vitro cytotoxicity). As for the experimental part: as §1
Assay [9] deals with NCI H460. Briefly: Sulforhodamine B (SRB) assay. The note with it: Homo sapiens; NCI H460, Lung; 48 hours; read-out: GI50 (SRB in vitro cytotoxicity). It counts as cell-based. The method, then: as §1
For assay [10], the system named is HCT116. Briefly: Sulforhodamine B (SRB) assay. The assay is classed as cell-based. The note with it: Homo sapiens, HCT-116; HCT116, Colon; 48 hours; read-out: GI50 (SRB in vitro cytotoxicity). The method, then: as §1
Assay [11] has as its system A253. The assay can be described thus: Sulforhodamine B (SRB) assay. The assay is classed as cell-based. To be noted: Homo sapiens; A253, Melanoma; 48 hours; read-out: GI50 (SRB in vitro cytotoxicity). The method, then:
as §1

The subject of assay [12] is ACHN. Briefly: Sulforhodamine B (SRB) assay. The assay is classed as cell-based. The note with it: Homo sapiens, Renal, 48 hours, read-out: GI50 (SRB in vitro cytotoxicity). The method, then:
as §1

Assay [13] relates to K562. Briefly: Sulforhodamine B (SRB) assay. The assay is classed as cell-based. To be noted: Homo sapiens; K562, Leukemia; 48 hours; read-out: GI50 (SRB in vitro cytotoxicity). The method, then: as §1
The test system of assay [14] is HT29. The assay can be described thus: Sulforhodamine B (SRB) assay. It counts as cell-based. To be noted: Homo sapiens, HT-29; HT29, Colon; 48 hours; read-out: GI50 (SRB in vitro cytotoxicity). The method, then:
as §1

In assay [15] the test system is DLD-1. The assay can be described thus: Sulforhodamine B (SRB) assay. The assay is classed as cell-based. To be noted: Homo sapiens; DLD-1, Colon; 48 hours; read-out: GI50 (SRB in vitro cytotoxicity). The method, then: as §1
Assay [16] deals with HCT15. Briefly: Sulforhodamine B (SRB) assay. It counts as cell-based. To be noted: Homo sapiens, HCT-15; HCT15, Colon; 48 hours; read-out: GI50 (SRB in vitro cytotoxicity). The method, then: as §1
The test system of assay [17] is K562/VIN. Briefly: Sulforhodamine B (SRB) assay. It counts as cell-based. To be noted: Homo sapiens, Leukemia, 48 hours, read-out: GI50 (SRB in vitro cytotoxicity). The method, then:
as §1

Assay [18] concerns A549. Briefly: Sulforhodamine B (SRB) assay. It counts as cell-based. To be noted: Homo sapiens; A549, Lung; 48 hours; read-out: GI50 (SRB in vitro cytotoxicity). The method, then: as §1
Assay [19] concerns SW480 cells. The assay can be described thus: Soft agar colony formation assay. The assay is classed as cell-based. The method, then:
The soft agar colony formation assay was conducted with SW480 cells by some modification of the procedure previously described (Moody et al., “A vasoactive intestinal peptide antagonist inhibits non-small cell lung cancer growth,” Proc. Natl. Acad. Sci. USA. 90:4345-49 (1993)).
Each well (35 mm) of a 6-well plate (Nalge Nunc International, Roskide, Denmark) was coated with 1 ml of 0.8% bottom agar in DMEM medium containing 10% fetal bovine serum. After it was solidified, 1 ml of DMEM medium containing 0.4% top agar, 10% fetal bovine serum, compound doubly concentrated, and 5,000 single viable cells was added to each well. The cultures were incubated at 37° C. in humidified 5% CO2 incubator. Colonies in soft agar were monitored daily and photographed after incubation for 8 days. Colonies>60 μm in diameter were counted.

Assay [20] concerns GAP-43 in PC-12 PS-1/L286V cells. Briefly: GAP-43 immunofluorescence. The assay is classed as cell-based, Rat. The note with it: PS-1/L286V mutant PC-12 cells; 10 μM. The method, then: Immunofluorescence. Cells were plated at a density of 10,000 cells/cm^2 on sterile coated 22×22 mm coverslips in a 6-well culture plate. Differentiation was initiated, as previously described, for 10 days. The differentiated cells were then fixed in methanol for 15 minutes at −20° C. This is followed by a 15 minutes incubation with PBS+0.1% Triton X-100. The coverslips were incubated with antibodies raised against Ephrin B2 Receptor (Santa Cruz Biotechnology) and Gap-43 (Novus Biologicals) for 40 minutes at 37° C. After a series of washes with PBS-Triton X-100, secondary antibody conjugated to FITC (Jackson ImmunoResearch, Westgrove, Pa.) was applied. All slides images were acquired using a Nikon PCM2000 Laser Scanning Confocal Microscope mounted on a Nikon Eclipse E600 upright microscope (Nikon, Melville, N.Y.).

For orientation: GI50 means the concentration that inhibits growth by half. `O=c1[nH]cc(F)c(=O)[nH]1` [Compound 5-FU, 5-fluorouracil]: in assay [1] (5 μM), the “amount of survivin protein (Western blot)” value is recorded as “reduced the amount of the survivin protein”. The GI50 in assay [2] is 0.92 µg/mL (≈ 7.07 µM); in assay [3], 0.695 µg/mL (≈ 5.34 µM); in [4], 5.57 µg/mL (≈ 42.8 µM); in assay [5], over 10 µg/mL; in assay [6], over 10 µg/mL; in assay [7] it was 1.75 µg/mL (≈ 13.5 µM). Moreover, the GI50 was 5.49 µg/mL (≈ 42.2 µM) in assay [8]; 1.4 µg/mL (≈ 10.7 µM) in assay [9]; 1.04 µg/mL (≈ 7.99 µM) in assay [10]; 2.93 µg/mL (≈ 22.5 µM) in assay [11]; 5.06 µg/mL (≈ 38.9 µM) in assay [12]; 6.13 µg/mL (≈ 47.1 µM) in assay [13]. Further, the GI50 in assay [14] is 5.33 µg/mL (≈ 41 µM); in assay [15], over 10 µg/mL; in assay [16], 1.18 µg/mL (≈ 9.06 µM); in assay [17], 7.07 µg/mL (≈ 54.4 µM); in assay [18] it was 1.01 µg/mL (≈ 7.74 µM).

The IC50 is the concentration needed to halve the response being measured. Lower therefore signals inhibition by little substance. For `O=C1[C@H](Cc2ccc(O)cc2)N2C(=O)CCN(C(=O)NCc3ccccc3)[C@H]2CN1Cc1cccc2ccccc12` [Compound D], the “amount of survivin protein (Western blot)” value in [1] (10 μM) and in assay [1] (25 μM) was “reduced the amount of the survivin protein” throughout. In addition, the “number of colonies formed in soft agar” value in assay [19] (0.25-5 μM) is “reduces colony growth in soft agar in a dose dependent manner”. Also, the IC50 in assay [19] (Homo sapiens, 192 h, 8 days, colonies >60 μm) is 870 ± 110 nM. Also, the GAP-43 staining result in assay [20] was “significantly elevated”.

These data come from patent US7671054B1, “Reverse-turn mimetics and method relating thereto” (Choongwae Pharma Corporation, priority 2001, dated 2010).
